This passage reports IC50 results from patent US12692254B2, “Benzimidazole inhibitors of PAD enzymes” (BRISTOL-MYERS SQUIBB COMPANY, priority 2018, dated 2026).

The assay addresses human PAD4 (hPAD4) (Homo sapiens, UniProt Q9UM07). Briefly: RFMS human PAD4 functional assay (rapid-fire mass spectrum). The assay is classed as biochemical. The note with it: 5 nM hPAD4 enzyme, 250 μM BAEE, 50 μM Calcium; 30 min preincubation, 90 min reaction at 37° C. The essentials:
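PAD4 (10 nM) preincubated 30 min with compound (top final 50 μM), then BAEE substrate added in pH 7.5 HEPES buffer with DTT, 50 μM calcium, TPEN; 90 min at 37° C. After TCA quench, citrulline derivatized with phenyl glyoxal (4 mM final, 30 min, 37° C) and quantified by RapidFire MS against internal standard.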

human PAD4 (hPAD4), sequence (Q9UM07 whole entry): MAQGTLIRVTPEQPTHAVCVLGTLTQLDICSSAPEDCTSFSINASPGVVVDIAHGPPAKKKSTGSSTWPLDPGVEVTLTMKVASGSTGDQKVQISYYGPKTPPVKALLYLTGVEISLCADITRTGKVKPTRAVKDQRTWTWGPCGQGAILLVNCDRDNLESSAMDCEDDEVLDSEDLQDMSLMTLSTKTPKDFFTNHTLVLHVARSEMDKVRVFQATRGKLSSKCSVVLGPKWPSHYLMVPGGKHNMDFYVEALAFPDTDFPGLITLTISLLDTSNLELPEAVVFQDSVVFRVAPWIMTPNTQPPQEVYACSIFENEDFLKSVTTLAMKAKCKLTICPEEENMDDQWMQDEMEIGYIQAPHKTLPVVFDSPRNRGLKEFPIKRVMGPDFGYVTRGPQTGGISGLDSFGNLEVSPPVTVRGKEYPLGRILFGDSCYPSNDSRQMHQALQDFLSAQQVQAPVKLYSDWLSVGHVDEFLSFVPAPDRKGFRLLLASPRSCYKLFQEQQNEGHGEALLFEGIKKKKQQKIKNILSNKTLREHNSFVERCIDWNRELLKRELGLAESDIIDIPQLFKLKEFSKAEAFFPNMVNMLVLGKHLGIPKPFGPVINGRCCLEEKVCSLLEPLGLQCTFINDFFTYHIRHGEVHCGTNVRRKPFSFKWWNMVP

With `N[C@@H]1C2CCC1N(C(=O)c1ccc3c(c1)nc(-c1cc4ccccc4n1CC1CC1)n3CC1CN(C(=O)c3ccccc3)C1)C2` (stereo partly drawn) [Example 170, (1R,4R,7R)-2-{1-[(1-benozylazetidin-3-yl)methyl]-2-[1-(cyclopropylmethyl)-1H-indol-2-yl]-1H-1,3-benzodiazol-5-carbonyl}-2-azabicyclo[2.2.1]heptan-7-amine], the IC50 is 35 nM.

As to `COc1cc(C(=O)N2C[C@H]3CC[C@@H]2[C@@H]3N)cc2nc(-c3cc4ccccc4n3CC3CC3)n(CC3CN(c4cncc(C#N)c4)C3)c12` [Example 67, 5-[3-({5-[(1R,4R,7R)-7-amino-2-azabicyclo[2.2.1]heptane-2-carbonyl]-2-[1-(cyclopropylmethyl)-1H-indol-2-yl]-7-methoxy-1H-1,3-benzodiazol-1-yl}methyl)azetidin-1-yl]pyridine-3-carbonitrile], the IC50 turned out to be 40 nM.

On to `COc1cc(C(=O)N2C[C@H]3CC[C@@H]2[C@@H]3N)cc2nc(-c3cc4cccnc4n3CC3CC3)n(C3CN(C(=O)c4cnc(NCC(C)(C)O)nc4)C3)c12` [Example 185, 1-{[5-(3-{5-[(1R,4R,7R)-7-amino-2-azabicyclo[2.2.1]heptane-2-carbonyl]-2-[1-(cyclopropylmethyl)-1H-pyrrolo[2,3-b]pyridin-2-yl]-7-methoxy-1H-1,3-benzodiazol-1-yl}azetidine-1-carbonyl)pyrimidin-2-yl]amino}-2-methylpropan-2-ol], for which the IC50 amounted to 316 nM.

Turning to `COc1cc(C(=O)N2C[C@H]3CC[C@@H]2[C@@H]3N)cc2nc(-c3cc4cccnc4n3CC3CC3)n(CC3CCN(c4ccncn4)CC3)c12` [Example 217, (1R,4R,7R)-2-{2-[1-(cyclopropylmethyl)-1H-pyrrolo[2,3-b]pyridin-2-yl]-7-methoxy-1-{[1-(pyrimidin-4-yl)piperidin-4-yl]methyl}-1H-1,3-benzodiazole-5-carbonyl}-2-azabicyclo[2.2.1]heptan-7-amine], the half-inhibitory concentration (IC50) was determined as 56 nM.

As for `COc1cc(C(=O)N2CC3CCC2[C@@H]3N)cc2nc(-c3cc4cccnc4n3CC3CC3)n(CC3(C)CN(C(=O)c4ccccc4)C3)c12` (stereo partly drawn) [Example 444, (7R)-2-{1-[(1-benzoyl-3-methylazetidin-3-yl)methyl]-2-[1-(cyclopropylmethyl)-1H-pyrrolo[2,3-b]pyridin-2-yl]-7-methoxy-1H-1,3-benzodiazole-5-carbonyl}-2-azabicyclo[2.2.1]heptan-7-amine], the IC50 is 43 nM.

As to `COc1cc(C(=O)N2CC3(CCCNC3)C2)cc2nc(-c3cc4ccccc4n3CC3CC3)n(Cc3cnn(C)c3)c12` [Example 288, 2-{2-[1-(cyclopropylmethyl)-1H-indol-2-yl]-7-methoxy-1-[(1-methyl-1H-pyrazol-4-yl)methyl]-1H-1,3-benzodiazole-5-carbonyl}-2,6-diazaspiro[3.5]nonane], the IC50 was found to be 1280 nM.

`COc1cc(C(=O)N2CC3CCC2[C@@H]3N)cc2nc(-c3cc4cccnc4n3CC3CC3)n([C@H]3C[C@@H](NS(C)(=O)=O)C3)c12` (stereo partly drawn) [Example 297, N-[(1s,3s)-3-{5-[(1R,4R,7R)-7-amino-2-azabicyclo[2.2.1]heptane-2-carbonyl]-2-[1-(cyclopropylmethyl)-1H-pyrrolo[2,3-b]pyridin-2-yl]-7-methoxy-1H-1,3-benzodiazol-1-yl}cyclobutyl]methanesulfonamide]: the IC50 came to 2100 nM.

With `COc1cc(C(=O)N2CC3CCC2[C@@H]3N)cc2nc(-c3cc4cccnc4n3CC3CC3)n(Cc3cnn(-c4cccnc4O)c3)c12` (stereo partly drawn) [Example 374, 3-[4-({5-[(7R)-7-amino-2-azabicyclo[2.2.1]heptane-2-carbonyl]-2-[1-(cyclopropylmethyl)-1H-pyrrolo[2,3-b]pyridin-2-yl]-7-methoxy-1H-1,3-benzodiazol-1-yl}methyl)-1H-pyrazol-1-yl]pyridin-2-ol], the IC50 was 35 nM.

For `COc1cc(C(=O)N2C[C@H]3CC[C@@H]2[C@@H]3N)cc2nc(-c3cc4ccc(Cl)cc4n3CC3CC3)n(CC3CN(c4cncc(C)c4)C3)c12` [Example 23, (1R,4R,7R)-2-{2-[6-chloro-1-(cyclopropylmethyl)-1H-indol-2-yl]-7-methoxy-1-{[1-(5-methylpyridin-3-yl)azetidin-3-yl]methyl}-1H-1,3-benzodiazole-5-carbonyl}-2-azabicyclo[2.2.1]heptan-7-amine], the IC50 came out at 62 nM.

`COc1cc(C(=O)N2CC3CCC2[C@@H]3N)cc2nc(-c3cc4ccccc4n3CC3CC3)n(CC3CN(C(=O)c4cc[n+]([O-])cc4)C3)c12` (stereo partly drawn) [Example 461, 4-[3-({5-[(7R)-7-amino-2-azabicyclo[2.2.1]heptane-2-carobnyl]-2-[1-(cyclopropylmethyl)-1H-indol-2-yl]-7-methoxy-1H-1,3-benzodiazol-1-yl}methyl)azetidine-1-carbonyl]pyridin-1-ium-1-olate]: the IC50 came to 68 nM.

Take `COc1cc(C(=O)N2C[C@H]3CC[C@@H]2[C@@H]3N)cc2nc(-c3csc4ccc(Cl)cc34)n(CC3CN(c4ccnc(C#N)n4)C3)c12` [Example 315, 4-[3-({5-[(1R,4R,7R)-7-amino-2-azabicyclo[2.2.1]heptane-2-carbonyl]-2-(5-chloro-1-benzothiophen-3-yl)-7-methoxy-1H-1,3-benzodiazol-1-yl}methyl)azetidin-1-yl]pyrimidine-2-carbonitrile]: the concentration for half-maximal inhibition (IC50) worked out at 929 nM.

As for `COc1ccc(C(=O)N2CC(Cn3c(-c4cc5ccccc5n4CC4CC4)nc4cc(C(=O)N5C[C@H]6CC[C@@H]5[C@@H]6N)cc(OC)c43)C2)cc1` [Example 153, (1R,4R,7R)-2-{2-[1-(cyclopropylmethyl)-1H-indol-2-yl]-7-methoxy-1-{[1-(4-methoxybenzoyl)azetidin-3-yl]methyl}-1H-1,3-benzodiazole-5-carbonyl}-2-azabicyclo[2.2.1]heptan-7-amine], the IC50 was found to be 21 nM.

For `COc1cc(C(=O)N2C[C@H]3CC[C@@H]2[C@@H]3N)cc2nc(-c3cc4cccnc4n3CC3CC3)n(CC3CN(c4nc(C#N)ncc4C#N)C3)c12` [Example 14, 4-[3-({5-[(1R,4R,7R)-7-amino-2-azabicyclo[2.2.1]heptane-2-carbonyl]-2-[1-(cyclopropylmethyl)-1H-pyrrolo[2,3-b]pyridin-2-yl]-7-methoxy-1H-1,3-benzodiazol-1-yl}methyl)azetidin-1-yl]pyrimidine-2,5-dicarbonitrile], the IC50 worked out at 46 nM.

For the compound `COc1cc(C(=O)N2C[C@H](N)C[C@@H](F)C2)cc2nc(-c3cc4cccnc4n3CC3CC3)n(Cc3cnn(-c4cccc(F)n4)c3)c12` [Example 344, (3R,5R)-1-{2-[1-(cyclopropylmethyl)-1H-pyrrolo[2,3-b]pyridin-2-yl]-1-{[1-(6-fluoropyridin-2-yl)-1H-pyrazol-4-yl]methyl}-7-methoxy-1H-1,3-benzodiazole-5-carbonyl}-5-fluoropiperidin-3-amine], the IC50 turned out to be 39 nM.

On to `COc1cc(C(=O)N2CC3CCC2[C@@H]3N)cc2nc(-c3cc4ccccc4n3CC3CC3)n(Cc3cnn(-c4ccnc(N)c4)c3)c12` (stereo partly drawn) [Example 361, (7R)-2-(1-{[1-(2-aminopyridin-4-yl)-1H-pyrazol-4-yl]methyl}-2-[1-(cyclopropylmethyl)-1H-indol-2-yl]-7-methoxy-1H-1,3-benzodiazole-5-carbonyl)-2-azabicyclo[2.2.1]heptan-7-amine], for which the IC50 came to 25 nM.

As for `COc1cc(C(=O)N2CC3CCC2[C@@H]3N)cc2nc(-c3cc4cccnc4n3CC3CC3)n(C3CN(S(=O)(=O)C4CC4)C3)c12` (stereo partly shown) [Example 328], the IC50 is 125 nM.

For `COc1cc(C(=O)N2C[C@H]3CC[C@@H]2[C@@H]3N)cc2nc(-c3cc4cccnc4n3C)n(CC3CN(c4cncnc4C#N)C3)c12` [Example 60, 5-[3-({5-[(1R,4R,7R)-7-amino-2-azabicyclo[2.2.1]heptane-2-carbonyl]-7-methoxy-2-{1-methyl-1H-pyrrolo[2,3-b]pyridin-2-yl}-1H-1,3-benzodiazol-1-yl}methyl)azetidin-1-yl]pyrimidine-4-carbonitrile], the IC50 amounted to 171 nM.

For the compound `COc1cc(C(=O)N2CC3CCC2[C@@H]3N)cc2nc(-c3cc4cccnc4n3CC3CC3)n(CC3CN(C(=O)c4ccc(C#N)cc4F)C3)c12` (stereo partly drawn) [Example 454, 4-[3-({5-[(7R)-7-amino-2-azabicyclo[2.2.1]heptane-2-carbonyl]-2-(1-(cyclopropylmethyl)-1H-pyrrolo[2,3-b]pyridin-2-yl]-7-methoxy-1H-1,3-benzodiazol-1-yl}methyl)azetidine-1-carbonyl]-3-fluorobenzointrile], the IC50 amounted to 53 nM.

`COc1cc(C(=O)N2C[C@H]3CC[C@@H]2[C@@H]3N)cc2nc(-c3cc4ccc(Cl)cc4n3CC3CC3)n(CC3CN(c4ccnc(C(N)=O)n4)C3)c12` [Example 8, 4-[3-({5-[(1R,4R,7R)-7-amino-2-azabicyclo[2.2.1]heptane-2-carbonyl]-2-[6-chloro-1-(cyclopropylmethyl)-1H-indol-2-yl]-7-methoxy-1H-1,3-benzodiazol-1-yl}methyl)azetidin-1-yl]pyrimidine-2-carboxamide]: the IC50 was found to be 18 nM.

As to `COc1cc(C(=O)N2CC3CCC2[C@@H]3N)cc2nc(-c3cc4cccnc4n3CC3CC3)n(CC3CN(S(=O)(=O)c4ccccc4)C3)c12` (stereo partly shown) [Example 326], the concentration for half-maximal inhibition (IC50) is 197 nM.

As for `COc1cc(C(=O)N2C[C@H]3CC[C@@H]2[C@@H]3N)cc2nc(-c3cc4cccnc4n3CC3CC3)n(CC3CN(S(=O)(=O)c4ccc(Cl)nc4)C3)c12` [Example 334, (1R,4R,7R)-2-[1-({1-[(6-chloropyridin-3-yl)sulfonyl]azetidin-3-yl}methyl)-2-[1-(cyclopropylmethyl)-1H-pyrrolo[2,3-b]pyridin-2-yl]-7-methoxy-1H-1,3-benzodiazole-5-carbonyl]-2-azabicyclo[2.2.1]heptan-7-amine], the IC50 came to 225 nM.

On to `COc1cc(C(=O)N2C[C@H]3CC[C@@H]2[C@@H]3N)cc2nc(-c3csc4ccc(Cl)cc34)n(CC3CN(c4ccnc(C)n4)C3)c12` [Example 324, (1R,4R,7R)-2-[2-(5-chloro-1-benzothiophen-3-yl)-7-methoxy-1-{[1-(2-methylpyrimidin-4-yl)azetidin-3-yl]methyl}-1H-1,3-benzodiazole-5-carbonyl]-2-azabicyclo[2.2.1]heptan-7-amine], for which the 50% inhibitory concentration (IC50) is 1880 nM.

The term IC50 denotes the concentration that gives 50% inhibition.
